Active and inactive are the calls of the source. The calls are words filed in the database; no cut-off is given here.

As a reminder, the inhibition is the percentage by which the read-out fell short of the control. The term IC50 denotes the concentration that inhibits the measured activity by half.

One experiment deals with Platelet. Kind of experiment: Potency index, ratio of anti-platelet activity for aspirin to test compound in rat platelet rich plasma. Type of experiment: functional.
As to `COc1cc(-c2cc(=O)c3c(O)cc(O)cc3o2)ccc1O` [CHRYSOERIOL], the Ratio is given as 2.

Test system in another experiment: not listed separately
Kind of experiment: Anti-platelet activity in rat platelet rich plasma assessed as inhibition of ADP and calcium-induced platelet aggregation at 1650 uM incubated at 37 degC for 10 mins and measured 30 mins after ADP and calcium addition. The format is functional.
Take `CC(=O)Oc1ccccc1C(=O)O` [ASPIRIN]: the inhibition at 1650 µM worked out at 41.5%.

Test system in a further experiment: not listed separately
Kind of experiment: Anti-platelet activity in rat platelet rich plasma assessed as inhibition of ADP and calcium-induced platelet aggregation incubated at 37 degC for 10 mins and measured 30 mins after ADP and calcium addition. The format is functional.
Turning to `COc1cc(-c2cc(=O)c3c(O)cc(O)cc3o2)ccc1O` [CHRYSOERIOL], the IC50 worked out at 27.1 µM.

A further experiment deals with Platelet. Kind of experiment: (§1) Anti-platelet activity in rat platelet rich plasma assessed as inhibition of ADP and calcium-induced platelet aggregation at 100 uM pre-incubated at 37 degC for 10 mins and measured 30 mins after ADP and calcium addition. Type of experiment: functional.
With `O=C(O)c1cc(O)c(O)c(O)c1`, the inhibition entry was “inactive”.
Same read-out and setting: under `COc1ccc(C(=O)O)cc1O` stands “inactive”; under `COc1cc(-c2oc3cc(O)cc(O)c3c(=O)c2O)ccc1O`, “inactive”; under `COc1cc(O[C@@H]2O[C@H](COC(=O)c3cc(O)c(O)c(O)c3)[C@@H](O)[C@H](O)[C@H]2O)cc(O)c1OC`, “inactive”.
The same measure, in the same setting: to `Cc1c(O)c(C)c2c(c1O)C(=O)C[C@@H](c1ccc(O)cc1)O2` belongs “inactive”; to `C[C@H]1O[C@@H](Oc2c(-c3cc(O)c(O)c(O)c3)oc3cc(O)cc(O)c3c2=O)[C@@H](O)[C@@H](O)[C@@H]1O`, “inactive”; to `COc1c(-c2ccc(O)c(O)c2)oc2cc(O)cc(O)c2c1=O`, “inactive”.
The same measure, in the same setting: under `COc1c(-c2ccc(O)c(O)c2)oc2cc(O)ccc2c1=O` stands “inactive”; under `COc1cc(C(=O)O)cc(OC)c1O`, “inactive”; under `O=c1c(O)c(-c2ccc(O)cc2)oc2cc(O)cc(O)c12`, “inactive”.
As for `COc1c(C)c(O)c2c(=O)c(O)c(-c3ccc(O)cc3)oc2c1C`, the inhibition result was “inactive”.
With `O=C(O)c1ccc(O)c(O)c1`, the inhibition entry is “inactive”.

Test system in the next experiment: not listed separately
The description is as §1. Type of experiment: functional.
In the case of `O=c1c(O[C@@H]2OC[C@H](O)[C@H](O)[C@H]2O)c(-c2ccc(O)c(O)c2)oc2cc(O)cc(O)c12` [GUAJAVERIN], the inhibition at 100 µM was found to be 7.29%.
In the case of `COc1c(O)cc(C=O)cc1O`, the inhibition at 100 µM came out at 20.8%.
As to `O=C1C[C@@H](c2ccc(O)c(O)c2)Oc2cc(O)cc(O)c21` [ERIODICTYOL], the inhibition at 100 µM turned out to be 24.5%.
In the case of `O=c1ccoc2cc(O)cc(O)c12`, the inhibition at 100 µM was found to be 6.83%.
Same read-out and setting: under `O=c1c(O[C@@H]2O[C@H](CO)[C@@H](O)[C@H](O)[C@H]2O)c(-c2ccc(O)c(O)c2)oc2cc(O)cc(O)c12` [ISOQUERCETIN] stands 36.2%; under `O=c1c(O)c(-c2ccc(O)c(O)c2)oc2cc(O)cc(O)c12` [QUERCETIN], 16.8%; under `C[C@@H]1O[C@@H](Oc2cc(O)c3c(=O)cc(-c4cc(O)c(O)c(O)c4)oc3c2)[C@H](O)[C@H](O)[C@H]1O`, 41.3%.
The same measure, in the same setting: to `Cc1c(O)cc2oc(-c3ccc(O)cc3)c(O)c(=O)c2c1O` belongs 26%.
In the case of `O=C(O)/C=C/c1ccccc1` [CINNAMIC ACID], the inhibition at 100 µM came out at 8.69%.
Still for that read-out and setting: under `O=c1c(O[C@@H]2O[C@H](CO)[C@H](O)[C@H](O)[C@H]2O)c(-c2ccc(O)c(O)c2)oc2cc(O)cc(O)c12` [HYPEROSIDE] stands 35.2%; under `COc1cc(-c2cc(=O)c3c(O)cc(O)cc3o2)ccc1O` [CHRYSOERIOL], 92.3%; under `C[C@@H]1O[C@@H](Oc2c(-c3ccc(O)c(O)c3)oc3cc(O)cc(O)c3c2=O)[C@H](O)[C@H](O)[C@H]1O` [QUERCITRIN], 2.13%.
The same measure, in the same setting: under `Oc1cc(O)c2c(c1)O[C@H](c1ccc(O)c(O)c1)[C@@H](O)C2` [CIANIDANOL] stands 35.1%; under `O=c1cc(-c2ccc(O)c(O)c2)oc2cc(O)cc(O)c12` [LUTEOLIN], 26.6%; under `COC(=O)c1cc(O)c(O)c(O)c1` [GALLIC ACID METHYL ESTER], 16.2%.
On the same count and under the same terms, under `O=c1cc(-c2ccc(O)c(O)c2)oc2cc(O)ccc12` stands 13.7%; under `COc1cc(O[C@@H]2O[C@H](COC(=O)c3cc(O)c(O)c(O)c3)[C@@H](O)[C@H](O)[C@H]2O)ccc1O`, 22.1%.

The record behind these values is ChEMBL document CHEMBL3603760, “Potential therapeutic agents for circulatory diseases from Bauhinia glauca Benth.subsp. pernervosa. (Da Ye Guan Men)” (Bioorg Med Chem Lett, 2015).
